Data: the NIST ThermoML archive (doi:10.1021/acs.jced.5b00242)
Numbers after ± are expanded uncertainties.

Test: xn = mol fraction of the nth substance listed
Settings: 101 kPa, Liquid; for viscosity: Stabinger Viscometer; for mass density: Vibrating tube method

## CCn1cc[n+](C)c1.NCCS(=O)(=O)[O-] [1-ethyl-3-methylimidazolium taurinate] + CCn1cc[n+](C)c1.N#C[C-](C#N)C#N
308.15 K, x2 = 0.5001
  viscosity: 40.59 ± 2.6 mPa·s
  mass density: 1154.7 ± 16 kg/m3
308.15 K, x2 = 0.7496
  viscosity: 19.84 ± 0.5 mPa·s
  mass density: 1113.8 ± 16 kg/m3
308.15 K, x2 = 0
  mass density: 1244.8 ± 19 kg/m3
308.15 K, x2 = 0.2503
  mass density: 1197.9 ± 18 kg/m3
313.15 K, x2 = 0
  viscosity: 190.44 ± 10 mPa·s
  mass density: 1241.6 ± 19 kg/m3
313.15 K, x2 = 0.2503
  viscosity: 78.59 ± 3.7 mPa·s
  mass density: 1194.7 ± 18 kg/m3
313.15 K, x2 = 0.5001
  viscosity: 33.04 ± 2.1 mPa·s
  mass density: 1151.4 ± 16 kg/m3
313.15 K, x2 = 0.7496
  viscosity: 16.61 ± 0.42 mPa·s
  mass density: 1110.4 ± 16 kg/m3
318.15 K, x2 = 0
  viscosity: 143.31 ± 6.6 mPa·s
  mass density: 1238.6 ± 19 kg/m3
318.15 K, x2 = 0.2503
  viscosity: 61.69 ± 2.8 mPa·s
  mass density: 1191.7 ± 17 kg/m3
318.15 K, x2 = 0.5001
  viscosity: 27.27 ± 1.7 mPa·s
  mass density: 1148.2 ± 16 kg/m3
318.15 K, x2 = 0.7496
  viscosity: 14.44 ± 0.37 mPa·s
  mass density: 1107.2 ± 16 kg/m3
323.15 K, x2 = 0
  viscosity: 110.35 ± 4.5 mPa·s
  mass density: 1235.5 ± 19 kg/m3
323.15 K, x2 = 0.2503
  viscosity: 49.65 ± 2.3 mPa·s
  mass density: 1188.5 ± 17 kg/m3
323.15 K, x2 = 0.5001
  viscosity: 22.83 ± 1.4 mPa·s
  mass density: 1145 ± 16 kg/m3
323.15 K, x2 = 0.7496
  viscosity: 12.51 ± 0.32 mPa·s
  mass density: 1103.8 ± 16 kg/m3
328.15 K, x2 = 0
  viscosity: 86.59 ± 3.1 mPa·s
  mass density: 1232.4 ± 19 kg/m3
328.15 K, x2 = 0.2503
  viscosity: 40.56 ± 1.9 mPa·s
  mass density: 1185.3 ± 17 kg/m3
328.15 K, x2 = 0.5001
  viscosity: 19.37 ± 1.2 mPa·s
  mass density: 1141.7 ± 16 kg/m3
328.15 K, x2 = 0.7496
  viscosity: 10.94 ± 0.28 mPa·s
  mass density: 1100.5 ± 16 kg/m3
333.15 K, x2 = 0
  viscosity: 69.36 ± 2.3 mPa·s
  mass density: 1229.2 ± 19 kg/m3
333.15 K, x2 = 0.2503
  viscosity: 33.69 ± 1.6 mPa·s
  mass density: 1182.1 ± 17 kg/m3
333.15 K, x2 = 0.5001
  viscosity: 16.6 ± 1.1 mPa·s
  mass density: 1138.4 ± 16 kg/m3
333.15 K, x2 = 0.7496
  viscosity: 9.52 ± 0.24 mPa·s
  mass density: 1097.2 ± 16 kg/m3
338.15 K, x2 = 0
  viscosity: 56.05 ± 1.8 mPa·s
  mass density: 1226.1 ± 19 kg/m3
338.15 K, x2 = 0.2503
  viscosity: 28.15 ± 1.3 mPa·s
  mass density: 1179 ± 17 kg/m3
338.15 K, x2 = 0.5001
  viscosity: 14.4 ± 0.91 mPa·s
  mass density: 1135.2 ± 16 kg/m3
338.15 K, x2 = 0.7496
  viscosity: 8.62 ± 0.22 mPa·s
  mass density: 1093.9 ± 15 kg/m3
343.15 K, x2 = 0
  viscosity: 46.1 ± 1.5 mPa·s
  mass density: 1223 ± 19 kg/m3
343.15 K, x2 = 0.2503
  viscosity: 23.86 ± 1.1 mPa·s
  mass density: 1175.9 ± 17 kg/m3
343.15 K, x2 = 0.5001
  viscosity: 12.59 ± 0.79 mPa·s
  mass density: 1132 ± 16 kg/m3
343.15 K, x2 = 0.7496
  viscosity: 7.72 ± 0.2 mPa·s
  mass density: 1090.6 ± 15 kg/m3
348.15 K, x2 = 0
  viscosity: 38.4 ± 1.3 mPa·s
  mass density: 1219.9 ± 19 kg/m3
348.15 K, x2 = 0.2503
  viscosity: 20.46 ± 0.94 mPa·s
  mass density: 1172.7 ± 17 kg/m3
348.15 K, x2 = 0.5001
  viscosity: 11.1 ± 0.7 mPa·s
  mass density: 1128.8 ± 16 kg/m3
348.15 K, x2 = 0.7496
  viscosity: 6.96 ± 0.18 mPa·s
  mass density: 1087.3 ± 15 kg/m3
353.15 K, x2 = 0
  viscosity: 32.53 ± 1.1 mPa·s
  mass density: 1216.8 ± 19 kg/m3
353.15 K, x2 = 0.2503
  viscosity: 17.79 ± 0.82 mPa·s
  mass density: 1169.4 ± 17 kg/m3
353.15 K, x2 = 0.5001
  viscosity: 9.83 ± 0.62 mPa·s
  mass density: 1125.6 ± 16 kg/m3
353.15 K, x2 = 0.7496
  viscosity: 6.19 ± 0.16 mPa·s
  mass density: 1083.9 ± 15 kg/m3
